Source: ChEMBL document CHEMBL5214990, “Novel Aryl Alkamidazole Derivatives as Multifunctional Antifungal Inhibitors: Design, Synthesis, and Biological Evaluation” (J Med Chem, 2022)
Values after ≈ are worked out from the molar mass of the structure shown. Active and inactive are the calls of the source. No cut-off for these calls is given here.

Legend:
[1] = tested on: Candida albicans; assay: Antifungal activity against fluconazole-resistant Candida albicans 901 assessed as inhibition of fungal growth measured after 72 hrs by CLSI based liquid medium dilution method; format: functional
[2] = tested on: Mus musculus; assay: Immunomodulatory activity in mouse infected with Candida albicans assessed as increase in expression intensity of CD8+ T cells in spleen at 20 mg/kg, ip administered on days 2,4,6,8,10,12 and measured on day 14 by immunohistochemical staining analysis relative to control; format: functional, T-cell; conditions: time 13 day
[3] = target: T1, Lanosterol 14-alpha demethylase (Candida albicans (strain SC5314 / ATCC MYA-2876) (Yeast), UniProt P10613); assay: Inhibition of CYP51 in Candida albicans ATCC SC5314 assessed as unknown sterol content at 4 ug/ml measured after 48 hrs by GC-MS analysis; set-up: scale not given: the % may be the effect or the level left; conditions: at 4 µg/mL
[4] = tested on: Mus musculus; assay: Anti-inflammatory activity in mouse infected with Candida albicans assessed as reduction in NF-kappaB p65 expression in spleen at 20 mg/kg, ip administered on days 2,4,6,8,10,12 and measured on day 14 by immunohistochemical analysis; format: functional, organism-based; conditions: time 13.0 day
[5] = tested on: Mus musculus; assay: Immunomodulatory activity in mouse infected with Candida albicans assessed as increase in expression intensity of CD8+ T cells in spleen at 20 mg/kg, ip administered on days 2,4,6,8,10,12 and measured on day 14 by immunohistochemical staining analysis relative to fluconazole; format: functional, T-cell; conditions: time 13 day
[6] = Toxicity in mouse infected with Candida albicans assessed as morphological changes in lungs at 20 mg/kg, ip administered on days 2,4,6,8,10,12 and measured on day 14 by hematoxyin-eosin staining based analysis; format: organism-based; conditions: in vivo, 312 h, time 13 day
[7] = tested on: Mus musculus; assay: Anti-inflammatory activity in mouse infected with Candida albicans assessed as reduction in PD-L1 expression in spleen at 20 mg/kg, ip administered on days 2,4,6,8,10,12 and measured on day 14 by immunohistochemical analysis; format: functional, organism-based; conditions: time 13.0 day
[8] = tested on: Candida albicans; assay: Antifungal activity against Candida albicans infected in mouse assessed as reduction in fungal endogenous infection symptoms at 20 mg/kg, ip administered on days 2,4,6,8,10,12 and measured on day 14 by hematoxylin-eosin staining based analysis; format: functional, organism-based; conditions: time 13.0 day
[9] = Renal toxicity in mouse infected with Candida albicans assessed as blood urea nitrogen level at 20 mg/kg, ip administered on days 2,4,6,8,10,12 and measured on day 14 (reference value: 16.2 +/-1.6 mmol/L); format: organism-based; conditions: in vivo, 312 h, time 13 day
[10] = target: T2, Prostaglandin G/H synthase 2 (Homo sapiens, UniProt P35354); assay: Inhibition of COX2 (unknown origin) assessed as reduction in PGF2alpha content using arachidonic acid as substrate preincubated for 10 mins followed by substrate addition and measured after 2 mins by enzyme immunoassay
T2 sequence (P35354 whole entry): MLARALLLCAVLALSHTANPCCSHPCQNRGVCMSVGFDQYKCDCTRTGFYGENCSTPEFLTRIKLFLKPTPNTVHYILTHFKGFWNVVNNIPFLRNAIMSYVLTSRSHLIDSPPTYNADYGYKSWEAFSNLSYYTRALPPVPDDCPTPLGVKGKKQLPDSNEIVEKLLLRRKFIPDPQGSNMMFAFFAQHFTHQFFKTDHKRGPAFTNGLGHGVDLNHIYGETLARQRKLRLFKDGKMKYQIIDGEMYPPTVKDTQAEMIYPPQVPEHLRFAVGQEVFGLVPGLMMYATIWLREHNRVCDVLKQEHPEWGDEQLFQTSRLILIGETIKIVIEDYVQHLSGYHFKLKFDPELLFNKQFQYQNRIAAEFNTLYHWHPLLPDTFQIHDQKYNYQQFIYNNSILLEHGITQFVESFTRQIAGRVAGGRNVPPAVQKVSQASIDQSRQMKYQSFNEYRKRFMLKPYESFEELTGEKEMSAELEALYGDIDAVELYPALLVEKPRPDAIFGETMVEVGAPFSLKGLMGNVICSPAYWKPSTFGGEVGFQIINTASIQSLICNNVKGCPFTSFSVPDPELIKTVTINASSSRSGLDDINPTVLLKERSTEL

[11] = tested on: Candida albicans; assay: Antifungal activity against Candida albicans infected in mouse assessed as shrinkage of fungal infection region at 20 mg/kg, ip administered on days 2,4,6,8,10,12 and measured on day 14; format: functional, organism-based; conditions: time 13.0 day
[12] = tested on: Mus musculus; assay: Immunomodulatory activity in mouse infected with Candida albicans assessed as increase in expression intensity of CD3+ T cells in spleen at 20 mg/kg, ip administered on days 2,4,6,8,10,12 and measured on day 14 by immunohistochemical staining analysis relative to fluconazole; format: functional, T-cell; conditions: time 13 day
[13] = Toxicity in mouse infected with Candida albicans assessed as morphological changes in liver at 20 mg/kg, ip administered on days 2,4,6,8,10,12 and measured on day 14 by hematoxyin-eosin staining based analysis; format: organism-based; conditions: in vivo, 312 h, time 13 day
[14] = tested on: Candida albicans; assay: Antifungal activity against Candida albicans infected in mouse assessed as reduction in necrotic cell fragments in intercellular spaces of the infection region at 20 mg/kg, ip administered on days 2,4,6,8,10,12 and measured on day 14 by GMS staining based analysis; format: functional, organism-based; conditions: time 13.0 day
[15] = Toxicity in mouse infected with Candida albicans assessed as morphological changes in heart at 20 mg/kg, ip administered on days 2,4,6,8,10,12 and measured on day 14 by hematoxyin-eosin staining based analysis; format: organism-based; conditions: in vivo, 312 h, time 13 day
[16] = tested on: Candida albicans; assay: Antifungal activity against fluconazole-resistant Candida albicans 632 assessed as inhibition of fungal growth measured after 72 hrs by CLSI based liquid medium dilution method; format: functional
[17] = target: T1, Lanosterol 14-alpha demethylase; assay: Inhibition of CYP51 in Candida albicans ATCC SC5314 assessed as lanosterol content at 4 ug/ml measured after 48 hrs by GC-MS analysis; set-up: scale not given: the % may be the effect or the level left; conditions: at 4 µg/mL
[18] = tested on: Mus musculus; assay: Anti-inflammatory activity in mouse infected with Candida albicans assessed as reduction in PD-L1 expression in infection tissue at 20 mg/kg, ip administered on days 2,4,6,8,10,12 and measured on day 14 by western blot analysis; format: functional, organism-based; conditions: time 13.0 day
[19] = Increase in intracellular ROS level in Candida albicans assessed as fold increase in fluorescence intensity measured after 12 hrs by fluorescence microscopic analysis relative to control; format: functional
[20] = Hepatotoxicity in mouse infected with Candida albicans assessed as plasma AST level at 20 mg/kg, ip administered on days 2,4,6,8,10,12 and measured on day 14 (reference value: 53.4 +/-6.8 IU/L); format: toxicity, organism-based; conditions: in vivo, 312 h, time 13 day
[21] = tested on: Aspergillus fumigatus; assay: Antifungal activity against Aspergillus fumigatus KM8001 assessed as inhibition of fungal growth measured after 72 hrs by CLSI based liquid medium dilution method; format: functional
[22] = Toxicity in mouse infected with Candida albicans assessed as morphological changes in kidney at 20 mg/kg, ip administered on days 2,4,6,8,10,12 and measured on day 14 by hematoxyin-eosin staining based analysis; format: organism-based; conditions: in vivo, 312 h, time 13 day
[23] = tested on: Mus musculus; assay: Anti-inflammatory activity in mouse infected with Candida albicans assessed as reduction in COX-2 expression in spleen at 20 mg/kg, ip administered on days 2,4,6,8,10,12 and measured on day 14 by immunohistochemical analysis; format: functional, organism-based; conditions: time 13.0 day
[24] = Increase in intracellular ROS level in Cryptococcus neoformans assessed as fold increase in fluorescence intensity measured after 12 hrs by fluorescence microscopic analysis relative to control; format: functional

T1 sequence (P10613 whole entry): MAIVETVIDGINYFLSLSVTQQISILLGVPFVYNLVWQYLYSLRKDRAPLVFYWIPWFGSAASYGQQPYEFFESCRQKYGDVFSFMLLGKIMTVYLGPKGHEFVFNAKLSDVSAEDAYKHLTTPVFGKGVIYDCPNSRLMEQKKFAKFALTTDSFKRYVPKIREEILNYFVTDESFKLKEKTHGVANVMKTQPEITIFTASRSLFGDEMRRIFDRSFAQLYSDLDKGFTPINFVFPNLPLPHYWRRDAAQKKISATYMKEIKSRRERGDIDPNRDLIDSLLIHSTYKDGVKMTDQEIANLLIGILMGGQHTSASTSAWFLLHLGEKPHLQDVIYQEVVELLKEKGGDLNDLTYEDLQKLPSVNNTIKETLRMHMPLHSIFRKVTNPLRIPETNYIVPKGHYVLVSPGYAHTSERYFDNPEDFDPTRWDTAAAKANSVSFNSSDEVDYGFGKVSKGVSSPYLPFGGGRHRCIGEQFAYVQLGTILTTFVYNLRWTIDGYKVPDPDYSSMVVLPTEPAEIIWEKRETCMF

| SMILES | MIC50 [1] [µg/mL] | fold change (FC) [2] | Activity [3] [%] | Activity [4] | fold change (FC) [5] | Activity [6] | Activity [7] | Activity [8] | Activity [9] [mmol/L] | IC50 [10] [nM] | Activity [11] | fold change (FC) [12] | Activity [13] | Activity [14] | MIC50 [16] [µg/mL] | Activity [17] [%] | Activity [18] | Activity [20] [IU/L] | MIC50 [21] [µg/mL] | Activity [23] | further results |
| --- | --- | --- | --- | --- | --- | --- | --- | --- | --- | --- | --- | --- | --- | --- | --- | --- | --- | --- | --- | --- | --- |
| C[C@H](C(=O)N(C)CC(O)(Cn1ccnc1)c1ccc(Cl)cc1)c1ccc(-c2ccccc2)c(F)c1 (stereo partly specified) | 0.5 (≈ 1.02 µM) | 2.12 | 3.47 | Active | 2.12 | Non-Toxic | Active | Active | 20.5 | 2290 | Active | 2.12 | Non-Toxic | Active | 4 (≈ 8.13 µM) | 39.74 | Active | 69.5 | 2 (≈ 4.07 µM) | Active | Activity [15]: Non-Toxic; fold change (FC) [19]: 4; Activity [22]: Non-Toxic; fold change (FC) [24]: 4 |
| C[C@H](C(=O)N(C)CC(O)(Cn1ccnc1)c1ccc(Cl)cc1Cl)c1cccc(C(=O)c2ccccc2)c1 (stereo partly specified) | 0.5 (≈ 0.932 µM) | 2.12 | 2.61 | Active | 2.12 | Non-Toxic | Active | Active | 17 | 1930 | Active | 2.12 | Non-Toxic | Active | 2 (≈ 3.73 µM) | 38.57 | Active | 66.5 | 2 (≈ 3.73 µM) | Active | Activity [15]: Non-Toxic; fold change (FC) [19]: 4; Activity [22]: Non-Toxic; fold change (FC) [24]: 4 |
| OC(Cn1cncn1)(Cn1cncn1)c1ccc(F)cc1F [FLUCONAZOLE] | > 8 |  | 4.09 | Active |  |  | Active | Active | 24.4 |  |  |  |  | Active | > 8 | 35.17 | Active | 80.5 | > 8 | Active |  |
